The values that follow come from patent publication US9708293B2, “N-(pyridin-2-yl)pyrimidin-4-amine derivatives containing a sulfone group” (BAYER PHARMA AKTIENGESELLSCHAFT, priority 2012, dated 2017).

Experiment [1] has as its target T1, CDK2/CycE (Homo sapiens, UniProt P24941).
T1 construct: GST; purchased ProQinase GmbH (Freiburg, Germany); host or cells: insect cells (Sf9)
Kind of experiment: CDK2/CycE high ATP kinase assay (Method 2b). The class given is biochemical. As to conditions: 2 mM ATP, read-out: high ATP CDK2: CDK2/CycE1 kinase assay IC50. On the procedure:
2b. CDK2/CycE High ATP Kinase Assay
CDK2/CycE-inhibitory activity of compounds of the present invention at 2 mM adenosine-tri-phosphate (ATP) was quantified employing the CDK2/CycE TR-FRET (TR-FRET=Time Resolved Fluorescence Energy Transfer) assay as described in the following paragraphs.
Recombinant fusion proteins of GST and human CDK2 and of GST and human CycE, expressed in insect cells (Sf9) and purified by Glutathion-Sepharose affinity chromatography, were purchase from ProQinase GmbH (Freiburg, Germany). As substrate for the kinase reaction biotinylated peptide biotin-Ttds-YISPLKSPYKISEG (C-terminus in amid form) was used which can be purchased e.g. form the company JERINI peptide technologies (Berlin, Germany).
For the assay 50 nl of a 100 fold concentrated solution of the test compound in DMSO was pipetted into a black low volume 384 well microtiter plate (Greiner Bio-One, Frickenhausen, Germany), 2 μl of a solution of CDK2/CycE in aqueous assay buffer [50 mM Tris/HCl pH 8.0, 10 mM MgCl2, 1.0 mM dithiothreitol, 0.1 mM sodium ortho-vanadate, 0.01% (v/v) Nonidet-P40 (Sigma)] were added and the mixture was incubated for 15 min at 22° C. to allow pre-binding of the test compounds to the enzyme before the start of the kinase reaction. Then the kinase reaction was started by the addition of 3 μl of a solution ATP (3.33 mM=>final conc. in the 5 μl assay volume is 2 mM) and substrate (1.25 μM=>final conc. in the 5 μl assay volume is 0.75 μM) in assay buffer and the resulting mixture was incubated for a reaction time of […] at 22° C. The concentration of CDK2/CycE was adjusted depending of the activity of the enzyme lot and was chosen appropriate to have the assay in the linear range, typical concentrations were in the range of 15 ng/ml. […]
The resulting mixture was incubated 1 h at 22° C. to allow the formation of complex between the phosphorylated biotinylated peptide and the detection reagents. Subsequently the amount of phosphorylated substrate was evaluated by measurement of the resonance energy transfer from the Eu-chelate to the streptavidine-XL. Therefore, the fluorescence emissions at 620 nm and 665 nm after excitation at 350 nm wer measured in a TR-FRET reader, e.g. a Rubystar (BMG Labtechnologies, Offenburg, Germany) or a Viewlux (Perkin-Elmer). […]

Experiment [2] deals with T2, CDK9/CycT1 (Homo sapiens, UniProt P50750).
T2 construct: Recombinant full-length His-tagged human CDK9 and CycT1; His; purchased Invitrogen PV4131; host or cells: insect cells
T2 sequence (P50750 whole entry): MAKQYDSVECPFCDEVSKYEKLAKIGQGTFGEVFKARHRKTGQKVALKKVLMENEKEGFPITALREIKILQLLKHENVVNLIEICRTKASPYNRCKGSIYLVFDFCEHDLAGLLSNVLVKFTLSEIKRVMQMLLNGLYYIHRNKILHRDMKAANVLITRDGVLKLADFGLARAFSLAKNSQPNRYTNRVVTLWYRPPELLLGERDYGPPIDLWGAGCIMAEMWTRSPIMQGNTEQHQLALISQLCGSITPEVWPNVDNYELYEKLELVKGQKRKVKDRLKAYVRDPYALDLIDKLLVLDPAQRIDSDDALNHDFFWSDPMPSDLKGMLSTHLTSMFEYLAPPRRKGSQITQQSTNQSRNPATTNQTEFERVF
T2 sequence (O60563 whole entry partner): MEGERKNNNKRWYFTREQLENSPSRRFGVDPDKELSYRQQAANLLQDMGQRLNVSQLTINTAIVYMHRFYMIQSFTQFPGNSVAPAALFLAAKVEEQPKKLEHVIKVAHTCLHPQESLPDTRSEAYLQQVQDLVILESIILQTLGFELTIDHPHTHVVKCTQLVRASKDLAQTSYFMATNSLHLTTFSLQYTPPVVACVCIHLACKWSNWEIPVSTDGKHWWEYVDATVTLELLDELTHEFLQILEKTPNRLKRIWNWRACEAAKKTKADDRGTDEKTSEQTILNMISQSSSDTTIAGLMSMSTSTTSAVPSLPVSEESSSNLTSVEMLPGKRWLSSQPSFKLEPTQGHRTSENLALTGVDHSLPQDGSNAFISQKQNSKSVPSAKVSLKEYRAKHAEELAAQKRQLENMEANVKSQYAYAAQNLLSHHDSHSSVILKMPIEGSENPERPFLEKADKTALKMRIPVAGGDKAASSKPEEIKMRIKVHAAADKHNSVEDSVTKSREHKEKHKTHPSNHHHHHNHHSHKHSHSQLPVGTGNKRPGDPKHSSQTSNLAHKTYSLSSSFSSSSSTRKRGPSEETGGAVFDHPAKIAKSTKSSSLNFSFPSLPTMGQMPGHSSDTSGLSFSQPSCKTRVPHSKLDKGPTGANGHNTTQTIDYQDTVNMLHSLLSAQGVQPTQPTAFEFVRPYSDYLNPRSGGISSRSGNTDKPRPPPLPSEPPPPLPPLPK
Kind of experiment: CDK9/CycT1 kinase assay (Method 1a). It counts as biochemical. The note with it: 10 μM ATP. The text has this:
1a. CDK9/CycT1 Kinase Assay:
CDK9/CycT1—inhibitory activity of compounds of the present invention was quantified employing the CDK9/CycT1 TR-FRET assay as described in the following paragraphs:
Recombinant full-length His-tagged human CDK9 and CycT1, expressed in insect cells and purified by Ni-NTA affinity chromatography, were purchased from Invitrogen (Cat. No PV4131). As substrate for the kinase reaction biotinylated peptide biotin-Ttds-YISPLKSPYKISEG (C-terminus in amid form) was used which can be purchased e.g. form the company JERINI Peptide Technologies (Berlin, Germany). For the assay 50 nl of a 100 fold concentrated solution of the test compound in DMSO was pipetted into a black low volume 384 well microtiter plate (Greiner Bio-One, Frickenhausen, Germany), 2 μl of a solution of CDK9/CycT1 in aqueous assay buffer [50 mM Tris/HCl pH 8.0, 10 mM MgCl2, 1.0 mM dithiothreitol, 0.1 mM sodium ortho-vanadate, 0.01% (v/v) Nonidet-P40 (Sigma)] were added and the mixture was incubated for 15 min at 22° C. to allow pre-binding of the test compounds to the enzyme before the start of the kinase reaction. Then the kinase reaction was started by the addition of 3 μl of a solution of adenosine-tri-phosphate (ATP, 16.7 μM=>final conc. in the 5 μl assay volume is 10 μM) and substrate (1.67 μM=>final conc. in the 5 μl assay volume is 1 μM) in assay buffer and the resulting mixture was incubated for a reaction time of 25 min at 22° C. […]
The resulting mixture was incubated 1 h at 22° C. to allow the formation of complex between the phosphorylated biotinylated peptide and the detection reagents. Subsequently the amount of phosphorylated substrate was evaluated by measurement of the resonance energy transfer from the Eu-chelate to the streptavidine-XL. Therefore, the fluorescence emissions at 620 nm and 665 nm after excitation at 350 nm was measured in a HTRF reader, e.g. a Rubystar (BMG Labtechnologies, Offenburg, Germany) or a Viewlux (Perkin-Elmer). […]

Consider `COc1cc(F)ccc1-c1cc(Nc2cc(CS(C)(=O)=O)cc(F)n2)ncn1` [Example 4, 6-(4-Fluoro-2-methoxyphenyl)-N-{6-fluoro-4-[(methylsulfonyl)methyl]pyridin-2-yl}pyrimidin-4-amine], for which the IC50 worked out at 1.87 µM in experiment [1] and 0.003 µM in experiment [2].
The corresponding values for `COc1cc(F)ccc1-c1cc(Nc2cc(CS(C)(=O)=O)ccn2)ncn1` [Example 1, 6-(4-Fluoro-2-methoxyphenyl)-N-{4-[(methylsulfonyl)methyl]pyridin-2-yl}pyrimidin-4-amine] are at least 20 µM and 0.003 µM.
Regarding `COc1cc(F)ccc1-c1cc(Nc2cc(CS(C)(=O)=O)cc(C)n2)ncn1` [Example 2, 6-(4-Fluoro-2-methoxyphenyl)-N-{6-methyl-4-[(methylsulfonyl)methyl]pyridin-2-yl}pyrimidin-4-amine], the IC50 in experiment [1] turned out to be 2.25 µM.
As to `COc1cc(F)ccc1-c1cc(Nc2cc(CS(C)(=O)=O)cc(C(F)(F)F)n2)ncn1` [Example 3, 6-(4-Fluoro-2-methoxyphenyl)-N-{4-[(methylsulfonyl)methyl]-6-(trifluoromethyl)pyridin-2-yl}pyrimidin-4-amine], the figures for the IC50 in experiment [1] and in experiment [2] were 0.371 µM and 0.004 µM, respectively.
